# Test results taken from EP0911319A1, “Malonic acid based matrix metalloproteinase inhibitors” (Roche Diagnostics GmbH, priority 1997, dated 1999).
# Like-named read-outs stand apart in the source and are kept apart here.
# Molecular target: catalytic domain (Met80-Gly242) of human neutrophil collagenase (Homo sapiens, UniProt P22894)
# Assay type: biochemical
# Conditions: towards HNC, 8 nM enzyme, 10 µM DNP-Pro-Leu-Gly-Leu-Trp-Ala-D-Arg-NH2, 50 mM Tris/HCl pH 7.6, 25°C
# Description: Determination of the inhibitory effect (enzyme assay)
# In order to determine the inhibition of MMPs, for example HNC, the catalytic domain (isolation and purification see example 1) is incubated with inhibitors having various concentrations. […] The synthetic MMP substrate is a heptapeptide which is coupled, at the C-terminus, with DNP (Dinitrophenol). Said DNP residue quenches by steric hindrance the fluorescence of the adjacent tryptophane of the heptapeptide. After cleavage of a tripeptide which includes the DNP group, the tryptophane fluorescence increases. […] The reaction was started directly by giving the substrate into the solution. The cleavage of the fluorogenic substrate was followed by fluorescence spectroscopy with an excitation and emission wavelength of 280 and 350 nm, respectively. The IC50 value was calculated as the inhibitor concentration, which is necessary to decrease the velocity of the reaction to the half in comparison to the reaction without inhibitor.
# catalytic domain (Met80-Gly242) of human neutrophil collagenase, sequence (P22894 100-262): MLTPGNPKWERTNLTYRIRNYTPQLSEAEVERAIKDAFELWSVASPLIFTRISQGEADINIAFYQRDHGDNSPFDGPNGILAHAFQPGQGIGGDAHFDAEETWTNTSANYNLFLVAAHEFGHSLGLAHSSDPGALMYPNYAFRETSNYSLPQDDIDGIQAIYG
Compound,IC50 (read-out: IC50) [nM],IC50 [nM]
"CCCCCCCCNC(=O)C(CC(C)C)C(=O)NO (racemic) [Example 2, (±)-HONH-Mal(iBu)-NH-(CH2)7-CH3]",300,
"CC(C)CC(C(=O)NO)C(=O)NCCCc1ccccc1 (racemic) [Example 1, (±)-HONH-Mal(iBu)-NH-(CH2)3-C6H5]",,620
"O=C(NO)C(CCc1ccccc1)C(=O)NCCCc1ccccc1 (racemic) [Example 3, (±)-HONH-Mal(CH2CH2-C6H5)-NH-(CH2)3-C6H5]",560,
"O=C(NO)C(Cc1ccccc1)C(=O)NCCCc1ccccc1 (racemic) [Example 4, (±)-HONH-Mal(Bn)-NH-(CH2)3-C6H5]",640,
